For three compounds, IC50 results are on record in BindingDB's records for doi:10.1016/j.ejmech.2011.10.051 (University of The Mediterranean, 2012).

Test [1] in a line: Inhibition of Met-mediated tumorigenesis in HGF-stimulated human GTL16 cells assessed as impairment in anchorage-independent growth by soft agar growth assay.
Test [2] is described as follows: Inhibition of Met-mediated scattering in HGF-stimulated […] cells pre-incubated overnight prior to HGF stimulation for 24 hrs measured after 24 to 48 hrs.
A short description of test [3]: Inhibition of Met-mediated tumorigenesis in HGF-stimulated human HepG2 cells assessed as impairment in anchorage-independent growth by soft agar growth assay.
The nature of test [4]: Inhibition of TPR-fused MET-mediated mouse BA/F3 cell proliferation after 48 hrs by cell titre blue based spectrophotometry.

Molecules are shown by their SMILES.

Take `Cc1[nH]c(/C=C2\C(=O)Nc3ccc(S(=O)(=O)N(C)c4cccc(Cl)c4)cc32)c(C)c1C(=O)N1CCN(C)CC1` [(3Z)-N-(3-CHLOROPHENYL)-3-({3,5-DIMETHYL-4-[(4-METHYLPIPERAZIN-1-YL)CARBONYL]-1H-PYRROL-2-YL}METHYLENE)-N-METHYL-2-OXOINDOLINE-5-SULFONAMIDE]: the IC50 was 228 nM in test [1], 152 nM in test [2] and 1560 nM in test [3].

Take `O=C(Cc1cc(C(F)(F)F)cc(C(F)(F)F)c1)N[C@H](Cc1ccccc1)C(=O)Nc1ccc(-c2cn3c(n2)sc2ccccc23)cc1`: the IC50 worked out at 1190 nM in test [1], 206 nM in test [2] and 620 nM in test [3].

Turning to `O=C(Cc1cc(C(F)(F)F)cc(C(F)(F)F)c1)N[C@@H](Cc1ccccc1)C(=O)Nc1ccc(-c2cn3c(n2)sc2ccccc23)cc1`, the IC50 in test [1] was 811 nM; in test [2], 171 nM; in test [4], 4000 nM; in test [3], 321 nM.
